Results published in patent publication US20240166669A1, “QUINAZOLINE AMINE DERIVATIVES AS KRAS INHIBITORS” (Nikang Therapeutics, Inc., priority 2021, published 2024).

Molecular target: T1, K-Ras G12D (Homo sapiens, UniProt P01116, G12D)
T1 construct: AGS (Cobioer, CBP60476) cell lines which harbor KRAS G12D mutation; host or cells: AGS
Test: p-ERK Cellular 1-Plate Assay (Biological Example 3)
Assay type: cell-based
Conditions: AGS cells (KRAS G12D), 3 h treatment, AlphaLISA p-ERK1/2, 1-plate; Biological Example 3 (values marked *); read-out: AGS PERK EC50
Protocol: The ability of the compound of Formula (IIA′), (II′), or (II) or a pharmaceutically acceptable salt thereof (test compound) to inhibit K-Ras G12D activity was tested using AGS (Cobioer, CBP60476) cell lines which harbor KRAS G12D mutation as described below.
AGS (Cobioer, CBP60476) were seeded in 384-well plates and cultured overnight (5,000 cells per well, 40 μl total volume). The following morning, cells were treated with test compound, with starting concentration at 10 μM and 3-fold dilution down to 0.5 nM for 3 h at […]. DMSO treatment served as control. pERK was then measured using AlphaLISA SureFire Ultra p-ERK/2 (Thr202/Tyr204) Assay Kit (Perkin Elmer, cat #ALSU-PERK) following the manufacturer's instruction as follows.
Briefly, the culture medium was removed and 10 μl 1× lysis buffer was added to each well, followed by 10 minutes incubation on a plate shaker at room temperature. Acceptor mixture was prepared according to manufacturer's instruction. 5 μl acceptor mixture was added to the cell lysate and the plate was wrapped with foil, spun at 500 rpm for 10s and incubated at RT for 60 min. Donor mixture was prepared under subdued light. 5 μl donor mixture was added to the cell lysate and the plate was spun at 500 rpm for 10s and incubated at RT for another 60 min. in the dark.

T1 sequence (P01116 1-188 isoform P01116-2 G12D): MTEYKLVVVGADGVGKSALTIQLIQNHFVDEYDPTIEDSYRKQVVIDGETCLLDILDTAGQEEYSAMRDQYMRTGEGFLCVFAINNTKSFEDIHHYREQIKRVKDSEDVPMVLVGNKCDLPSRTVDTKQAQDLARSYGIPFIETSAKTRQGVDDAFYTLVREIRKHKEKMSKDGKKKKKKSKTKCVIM

| EC50 [nM] | Compound |
| --- | --- |
| 213 | C#Cc1c(F)ccc2cccc(-c3ncc4c(N5C[C@H]6CC[C@@H](C5)N6)nc(OCC56CCCN5CC(=C)CC6)nc4c3F)c12 (stereo partly drawn) [Example 50, 4-((1R,5S)-3,8-diazabicyclo[3.2.1]octan-3-yl)-7-(8-ethynyl-7-fluoronaphthalen-1-yl)-8-fluoro-2-((6-methylenehexahydroindolizin-8a(1H)-yl)methoxy)-pyrido[4,3-d]pyrimidine] |
| 836 | C#Cc1c(F)ccc2cccc(-c3ncc4c(N5C[C@H]6CC[C@@H](C5)N6)nc(OCC56CCCCN5CC(=C)C6)nc4c3F)c12 (stereo partly drawn) [Example 51, 4-((1R,5S)-3,8-diazabicyclo[3.2.1]octan-3-yl)-7-(8-ethynyl-7-fluoronaphthalen-1-yl)-8-fluoro-2-((2-methylenehexahydroindolizin-8a(1H)-yl)methoxy)pyrido[4,3-d]pyrimidine] |
| > 100 | C#Cc1c(F)ccc2cccc(-c3ncc4c(N5C[C@H]6CC[C@@H](C5)N6)nc(OCC56CCCCCN5CC(=C)C6)nc4c3F)c12 (stereo partly drawn) [Example 52, 4-((1R,5S)-3,8-diazabicyclo[3.2.1]octan-3-yl)-7-(8-ethynyl-7-fluoronaphthalen-1-yl)-8-fluoro-2-((2-methylenehexahydro-1H-pyrrolo[1,2-a]azepin-9a(5H)-yl)methoxy)pyrido[4,3-d]pyrimidine] |
| 1.4 | C#Cc1c(F)ccc2cc(O)cc(-c3ncc4c(N5C[C@H]6CC[C@H](N6)C5C)nc(OCC56CCCN5CC(=C)C6)nc4c3F)c12 (stereo partly drawn) [Example 54, 5-ethynyl-6-fluoro-4-(8-fluoro-4-((1S,5R)-2-methyl-3,8-diazabicyclo[3.2.1]octan-3-yl)-2-((2-methylene-tetrahydro-1H-pyrrolizin-7a(5H)-yl)methoxy)-pyrido[4,3-d]pyrimidin-7-yl)naphthalen-2-ol] |
